ChEMBL document CHEMBL3352414, “Structure based inhibitor design targeting glycogen phosphorylase B. Virtual screening, synthesis, biochemical and biological assessment of novel N-acyl-β-d-glucopyranosylamines” (Bioorg Med Chem, 2014)

How the values were obtained:
[1] = target: T1, Glycogen phosphorylase, muscle form (Oryctolagus cuniculus, UniProt P00489); assay: Inhibition of rabbit skeletal muscle glycogen phosphorylase b assessed as inorganic phosphate release
T1 sequence (P00489 whole entry): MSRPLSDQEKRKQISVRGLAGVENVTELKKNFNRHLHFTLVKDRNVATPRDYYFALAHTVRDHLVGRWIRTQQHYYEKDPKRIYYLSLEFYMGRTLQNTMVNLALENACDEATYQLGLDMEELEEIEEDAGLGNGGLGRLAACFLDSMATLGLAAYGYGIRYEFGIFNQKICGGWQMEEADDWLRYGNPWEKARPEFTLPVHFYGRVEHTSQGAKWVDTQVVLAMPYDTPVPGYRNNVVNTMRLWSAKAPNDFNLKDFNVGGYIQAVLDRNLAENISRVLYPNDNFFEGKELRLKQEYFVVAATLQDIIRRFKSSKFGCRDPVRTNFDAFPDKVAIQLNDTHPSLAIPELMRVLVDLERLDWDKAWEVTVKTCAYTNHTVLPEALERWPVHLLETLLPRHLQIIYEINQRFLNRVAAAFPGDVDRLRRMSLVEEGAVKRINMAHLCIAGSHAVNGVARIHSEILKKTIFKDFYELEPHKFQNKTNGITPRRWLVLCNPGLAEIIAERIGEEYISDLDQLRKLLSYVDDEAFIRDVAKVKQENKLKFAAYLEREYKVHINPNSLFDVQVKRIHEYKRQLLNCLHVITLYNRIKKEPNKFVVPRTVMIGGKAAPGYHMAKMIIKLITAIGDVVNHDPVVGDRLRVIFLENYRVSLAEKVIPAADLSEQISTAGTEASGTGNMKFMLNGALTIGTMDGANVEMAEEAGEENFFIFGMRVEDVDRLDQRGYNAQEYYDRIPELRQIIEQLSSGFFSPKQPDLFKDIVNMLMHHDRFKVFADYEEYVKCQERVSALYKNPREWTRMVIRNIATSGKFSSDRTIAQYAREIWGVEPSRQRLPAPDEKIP

[2] = Octanol water partition coefficient, logP of the compound; assay type: physicochemical
[3] = Permeability in human Caco2 cells; assay type: ADME, cell-based; details: Caco-2, read-out: permeability

| Compound | Ki ([1]; read-out: Ki) | logP [2] | Papp [3] | Ki [1] |
| --- | --- | --- | --- | --- |
| O=C(N[C@@H]1O[C@H](CO)[C@@H](O)[C@H](O)[C@H]1O)[C@H](O)[C@@H](O)[C@@H](O)[C@H](O)CO | 225 µM | – | – | – |
| CC(=O)N[C@@H]1O[C@H](CO)[C@@H](O)[C@H](O)[C@H]1O | 32 µM | – | – | – |
| O=C(N[C@@H]1O[C@H](CO)[C@@H](O)[C@H](O)[C@H]1O)C(F)(F)F | 81 µM | – | – | – |
| O=C(C[C@H]1CC(=O)c2c(F)cc(F)cc21)N[C@@H]1O[C@H](CO)[C@@H](O)[C@H](O)[C@H]1O | – | -1.21 | 3.17 ×10⁻⁶ cm/s | – |
| C[C@H](CC(=O)N[C@@H]1O[C@H](CO)[C@@H](O)[C@H](O)[C@H]1O)c1ccc(C(C)(C)C)cc1 | – | 0.33 | 9.77 ×10⁻⁶ cm/s | – |
| O=C(O)C(=O)N[C@@H]1O[C@H](CO)[C@@H](O)[C@H](O)[C@H]1O | 710 µM | – | – | – |
| COC(=O)c1ccc(/C=C/C(=O)N[C@@H]2O[C@H](CO)[C@@H](O)[C@H](O)[C@H]2O)cc1 | – | -0.805 | 2.63 ×10⁻⁶ cm/s | – |
| COC(=O)c1cccc(C(=O)N[C@@H]2O[C@H](CO)[C@@H](O)[C@H](O)[C@H]2O)c1 | 580 µM | – | – | – |
| O=C(N[C@@H]1O[C@H](CO)[C@@H](O)[C@H](O)[C@H]1O)C1=Cc2cc(Cl)ccc2OC1 | – | -0.169 | 9.4 ×10⁻⁶ cm/s | – |
| CC(C)(C)c1ccc(C(=O)NC(=O)N[C@@H]2O[C@H](CO)[C@@H](O)[C@H](O)[C@H]2O)cc1 | 0.7 µM | – | – | – |
| CC(C)N(C(=O)C(=O)N[C@@H]1O[C@H](CO)[C@@H](O)[C@H](O)[C@H]1O)C(C)C | – | – | – | Not Active |
| O=C(N[C@@H]1O[C@H](CO)[C@@H](O)[C@H](O)[C@H]1O)c1ccccc1 | 81 µM | – | – | – |
| O=C1Cc2ccc(Cl)cc2C=C1C(=O)N[C@@H]1O[C@H](CO)[C@@H](O)[C@H](O)[C@H]1O | – | -0.221 | 3.85 ×10⁻⁶ cm/s | – |
| O=C(NC(=O)c1ccc(C(F)(F)F)cc1)N[C@@H]1O[C@H](CO)[C@@H](O)[C@H](O)[C@H]1O | 1.8 µM | – | – | – |
| CC(C)c1ccc(C[C@H](C)C(=O)N[C@@H]2O[C@H](CO)[C@@H](O)[C@H](O)[C@H]2O)cc1 | 75.3 µM | 0.01 | 7.67 ×10⁻⁶ cm/s | – |
| CCOC(=O)C(=O)N[C@@H]1O[C@H](CO)[C@@H](O)[C@H](O)[C@H]1O | 920 µM | – | – | – |
| O=C(N[C@@H]1O[C@H](CO)[C@@H](O)[C@H](O)[C@H]1O)[C@H](O)[C@@H](O)[C@H](O)[C@H](O)CO | 341 µM | – | – | – |
| COc1ccc(/C=C/C(=O)N[C@@H]2O[C@H](CO)[C@@H](O)[C@H](O)[C@H]2O)c(O)c1 | – | -0.958 | 3.89 ×10⁻⁶ cm/s | – |
| O=C(NC1CC1)C(=O)N[C@@H]1O[C@H](CO)[C@@H](O)[C@H](O)[C@H]1O | 1410 µM | – | – | – |
| CC(C)(C)c1ccc(/C=C/C(=O)N[C@@H]2O[C@H](CO)[C@@H](O)[C@H](O)[C@H]2O)cc1 | – | 0.496 | 8.77 ×10⁻⁶ cm/s | – |
| COC(=O)c1ccc(C(=O)N[C@@H]2O[C@H](CO)[C@@H](O)[C@H](O)[C@H]2O)cc1 | 329 µM | – | – | – |
| COC(=O)C(=O)N[C@@H]1O[C@H](CO)[C@@H](O)[C@H](O)[C@H]1O | 210 µM | – | – | – |
| Cc1ccc2c(c1)C=C(C(=O)N[C@@H]1O[C@H](CO)[C@@H](O)[C@H](O)[C@H]1O)C(=O)C2 | – | -0.451 | 3.62 ×10⁻⁶ cm/s | – |
| COc1cc(/C=C/C(=O)N[C@@H]2O[C@H](CO)[C@@H](O)[C@H](O)[C@H]2O)cc(OC)c1 | – | -0.36 | 8 ×10⁻⁶ cm/s | – |
| C[C@@H](Cc1ccc(C(C)(C)C)cc1)C(=O)N[C@@H]1O[C@H](CO)[C@@H](O)[C@H](O)[C@H]1O | – | 0.379 | 10 ×10⁻⁶ cm/s | – |
| O=C(N[C@@H]1O[C@H](CO)[C@@H](O)[C@H](O)[C@H]1O)C1CCCCC1 | 289 µM | – | – | – |

Results, then the compound that gave them:

| Ki ([1]; read-out: Ki) | logP [2] | Papp [3] | Ki [1] | Compound |
| --- | --- | --- | --- | --- |
| – | 0.004 | 12.2 ×10⁻⁶ cm/s | – | Cc1ccccc1[C@H](Cc1ccco1)C(=O)N[C@@H]1O[C@H](CO)[C@@H](O)[C@H](O)[C@H]1O |
| 3.5 µM | – | – | – | O=C(/C=C/c1ccc2ccccc2c1)N[C@@H]1O[C@H](CO)[C@@H](O)[C@H](O)[C@H]1O |
| – | 0.085 | 14.7 ×10⁻⁶ cm/s | – | CC(C)(C(=O)N[C@@H]1O[C@H](CO)[C@@H](O)[C@H](O)[C@H]1O)c1cccc2ccccc12 |
| 18 µM | – | – | – | O=C(/C=C/c1ccccc1)N[C@@H]1O[C@H](CO)[C@@H](O)[C@H](O)[C@H]1O |
| – | -2.1 | 0.4 ×10⁻⁶ cm/s | – | N[C@@H](Cc1c[nH]c2ccccc12)C(=O)N[C@@H]1O[C@H](CO)[C@@H](O)[C@H](O)[C@H]1O |
| 56 µM | – | – | – | O=C(Nc1ccc2ccccc2c1)C(=O)N[C@@H]1O[C@H](CO)[C@@H](O)[C@H](O)[C@H]1O |
| 83 µM | – | – | – | COC(=O)CCCC(=O)N[C@@H]1O[C@H](CO)[C@@H](O)[C@H](O)[C@H]1O |
| 18 µM | – | – | – | O=C(Nc1ccccc1)N[C@@H]1O[C@H](CO)[C@@H](O)[C@H](O)[C@H]1O |
| – | -0.574 | 5.4 ×10⁻⁶ cm/s | – | Cc1ccc(-c2cnc(CCC(=O)N[C@@H]3O[C@H](CO)[C@@H](O)[C@H](O)[C@H]3O)o2)cc1 |
| – | -0.807 | 3.14 ×10⁻⁶ cm/s | – | O=C(CCNC(=O)c1ccc(F)c(F)c1)N[C@@H]1O[C@H](CO)[C@@H](O)[C@H](O)[C@H]1O |
| 144 µM | – | – | – | O=C(Nc1cccc2ccccc12)C(=O)N[C@@H]1O[C@H](CO)[C@@H](O)[C@H](O)[C@H]1O |
| 85 µM | – | – | – | O=C(CCc1ccccc1)N[C@@H]1O[C@H](CO)[C@@H](O)[C@H](O)[C@H]1O |
| 5.2 µM | – | – | – | O=C(Nc1ccc2ccccc2c1)N[C@@H]1O[C@H](CO)[C@@H](O)[C@H](O)[C@H]1O |
| 377 µM | -0.162 | 8.9 ×10⁻⁶ cm/s | – | CCc1ccc([C@H](C)CC(=O)N[C@@H]2O[C@H](CO)[C@@H](O)[C@H](O)[C@H]2O)cc1 |
| 180 µM | – | – | – | O=C(Cn1cc(-c2ccccc2)nn1)N[C@@H]1O[C@H](CO)[C@@H](O)[C@H](O)[C@H]1O |
| 10 µM | – | – | – | O=C(N[C@@H]1O[C@H](CO)[C@@H](O)[C@H](O)[C@H]1O)c1cccc2ccccc12 |

| Ki ([1]; read-out: Ki) | logP [2] | Papp [3] | Ki [1] | Compound |
| --- | --- | --- | --- | --- |
| 100 µM | – | – | – | O=C(Nc1ccccc1)C(=O)N[C@@H]1O[C@H](CO)[C@@H](O)[C@H](O)[C@H]1O |
| 230 µM | – | – | – | O=C(Nc1ccccn1)C(=O)N[C@@H]1O[C@H](CO)[C@@H](O)[C@H](O)[C@H]1O |
| 170 µM | – | – | – | COC(=O)CCC(=O)N[C@@H]1O[C@H](CO)[C@@H](O)[C@H](O)[C@H]1O |
| – | 0.01 | 7.67 ×10⁻⁶ cm/s | – | CC[C@H](CC(=O)N[C@@H]1O[C@H](CO)[C@@H](O)[C@H](O)[C@H]1O)c1ccc(C)c(C)c1 |
| 4 µM | – | – | – | O=C(NC(=O)c1cc2ccccc2[nH]1)N[C@@H]1O[C@H](CO)[C@@H](O)[C@H](O)[C@H]1O |
| – | 0.255 | 14.5 ×10⁻⁶ cm/s | – | C[C@@H]1C[C@@]1(C(=O)N[C@@H]1O[C@H](CO)[C@@H](O)[C@H](O)[C@H]1O)c1cccc2ccccc12 |
| 600 µM | – | – | – | O=C(Cc1ccccc1)NC(=O)N[C@@H]1O[C@H](CO)[C@@H](O)[C@H](O)[C@H]1O |
| – | -0.915 | 3.65 ×10⁻⁶ cm/s | – | O=C(CCc1ncc(-c2ccccc2)o1)N[C@@H]1O[C@H](CO)[C@@H](O)[C@H](O)[C@H]1O |
| – | 0.037 | 10.6 ×10⁻⁶ cm/s | – | CC(C)(Oc1ccc2ccccc2c1)C(=O)N[C@@H]1O[C@H](CO)[C@@H](O)[C@H](O)[C@H]1O |
| 61 µM | – | – | – | O=C(C#Cc1ccccc1)N[C@@H]1O[C@H](CO)[C@@H](O)[C@H](O)[C@H]1O |
| – | -2.09 | 0.47 ×10⁻⁶ cm/s | – | N[C@H](Cc1c[nH]c2ccccc12)C(=O)N[C@@H]1O[C@H](CO)[C@@H](O)[C@H](O)[C@H]1O |
| – | 0.083 | 6.97 ×10⁻⁶ cm/s | – | O=C(C[C@H](c1ccc(Cl)cc1)C1CC1)N[C@@H]1O[C@H](CO)[C@@H](O)[C@H](O)[C@H]1O |
| – | – | – | Not Active | O=C(N[C@@H]1O[C@H](CO)[C@@H](O)[C@H](O)[C@H]1O)C(c1ccccc1)c1ccccc1 |
| – | 0.04 | 9.47 ×10⁻⁶ cm/s | – | CCc1ccc(/C=C/C(=O)N[C@@H]2O[C@H](CO)[C@@H](O)[C@H](O)[C@H]2O)cc1 |
| – | 0.075 | 7.87 ×10⁻⁶ cm/s | – | CC(C)c1ccc([C@@H](C)CC(=O)N[C@@H]2O[C@H](CO)[C@@H](O)[C@H](O)[C@H]2O)cc1 |
| 68 µM | – | – | – | O=C(NC(=O)c1ccccn1)N[C@@H]1O[C@H](CO)[C@@H](O)[C@H](O)[C@H]1O |
